Columns and labels:
[1] = system: NK-YS (IL-2 2.5 ng/mL); assay: drug sensitivity score (DSS) (DSS units); higher = more sensitive; extreme values may be limits of the assay; details: 72 h
[2] = system: normal primary NK cells, pool 2 (3 donors) (IL-2 2.5 ng/mL); assay: as above; details: 72 h
[3] = system: NK-92 (IL-2 2.5 ng/mL); assay: as above; details: 72 h
[4] = system: KAI3 (IL-2 2.5 ng/mL); assay: as above; details: 72 h
[5] = system: YT (IL-2 2.5 ng/mL); assay: as above; details: 72 h
[6] = system: normal primary NK cells, pool 1 (3 donors), resting (IL-2 0 ng/mL); assay: as above; details: 72 h
[7] = system: NKL (IL-2 2.5 ng/mL); assay: as above; details: 72 h
[8] = system: normal primary NK cells, pool 1 (3 donors) (IL-2 2.5 ng/mL); assay: as above; details: 72 h
[9] = system: normal primary NK cells, pool 3 (3 donors) (IL-2 2.5 ng/mL); assay: as above; details: 72 h
[10] = system: IMC-1 (IL-2 20 ng/mL); assay: as above; details: 72 h
[11] = system: SNK-6 (IL-2 2.5 ng/mL); assay: as above; details: 72 h
[12] = system: KHYG-1 (IL-2 2.5 ng/mL); assay: as above; details: 72 h
[13] = system: DERL-7 (IL-2 2.5 ng/mL); assay: as above; details: 72 h
[14] = system: normal NK cells expanded with K562-aAPC; assay: as above; details: 72 h; IL-2 2.5 ng/mL
Protocol: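 Drug sensitivity and resistance testing on K562-aAPC-expanded normal NK cells: 5 concentrations (10-fold steps over a 10,000-fold range), 72 h at 37 °C, viability by CellTiter-Glo normalised to DMSO and benzethonium chloride controls; DSS from the fitted curve.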

[15] = system: NK-YS (IL-2 2.5 ng/mL); assay: percent inhibition of viability; higher = more inhibition; details: 72 h
[16] = system: normal primary NK cells, pool 2 (3 donors) (IL-2 2.5 ng/mL); assay: as above; details: 72 h
[17] = system: NK-92 (IL-2 2.5 ng/mL); assay: as above; details: 72 h
[18] = system: KAI3 (IL-2 2.5 ng/mL); assay: as above; details: 72 h
[19] = system: YT (IL-2 2.5 ng/mL); assay: as above; details: 72 h
[20] = system: normal primary NK cells, pool 1 (3 donors), resting (IL-2 0 ng/mL); assay: as above; details: 72 h
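Wherever percent inhibition of viability is given: normalised to DMSO-only wells as negative and benzethonium chloride as positive control.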

Nc1ccccc1NC(=O)c1ccc(CNC(=O)OCc2cccnc2)cc1 [Entinostat] (max concentration tested 10000 nM)
Details | drug sensitivity score
[1] | 8.53
[2] | 9.03
[3] | 14.8
[4] | 14.8
[5] | 6.43
[6] | 13
[7] | 14.6
[8] | 9.83
[9] | 5.88
[10] | 7.18
[11] | 14.4
[12] | 11.5
[13] | 9.28
[14] | 8.42

percent inhibition of viability [%]
Details | [15] | [16] | [17] | [18] | [19] | [20]
1 nM | -7.17 | -6.42 | -11.3 | -0.78 | 0.9 | -8
10 nM | -13.1 | -3.08 | -2.61 | 3.8 | -0.08 | -8.09
100 nM | -7.95 | -10.5 | 7.67 | 18.4 | 4.17 | 10.2
1000 nM | 20.5 | 24.5 | 73.5 | 66.9 | 7.95 | –
10000 nM | 95.3 | 95.8 | 96.4 | 94 | 93.3 | –

Source: the supplement of paper PMC5908809
